Laboratory results published in patent publication US11845782B2, “Relaxin fusion polypeptides and uses thereof” (MedImmune Limited, priority 2017, dated 2023).
Substitutions are numbered along the chain they refer to.

B1: Fc-YTE-hRLX2-15-15AA: As Fc_hRLX2_15-15AA with YTE mutations in Fc; SEQ ID NO. 22 (protein)
chain: DKTHTCPPCPAPELLGGPSVFLFPPKPKDTLYITREPEVTCVVVDVSHEDPEVKFNWYVDGVEVHNAKTKPREEQYNSTYRVVSVLTVLHQDWLNGKEYKCKVSNKALPAPIEKTISKAKGQPREPQVYTLPPSRDELTKNQVSLTCLVKGFYPSDIAVEWESNGQPENNYKTTPPVLDSDGSFFLYSKLTVDKSRWQQGNVFSCSVMHEALHNHYTQKSLSLSPGKGGGGSGGGGSGGGGSQLYSALANKCCHVGCTKRSLARFCGGGGSGGGGSGGGGSSWMEEVIKLCGRELVRAQIAICGMSTWS
modifications: fusion protein
B2: Fc-YTE-TM_hRLX2_15-15A: As Fc_hRLX2_15-15AA with YTE and TM mutations in Fc; SEQ ID NO. 24 (protein)
chain: B1 chain with L14F, L15E, P111S
modifications: fusion protein
B3: Fc-YTE-FQQ_hRLX2_15-15A: As Fc_hRLX2_15-15AA with YTE and FQQ mutations in Fc; SEQ ID NO. 26 (protein)
chain: B1 chain with L14F, L15Q, K102Q
modifications: fusion protein

Columns and labels:
[1] = intravenous administration, cited from earlier work
[2] = system: VEGF expression in THP-1 cells; test: VEGF mRNA induction in THP-1 cells, quantitative real-time PCR (Example 4); type: cell-based, human; details: 0.01, 0.06, and 10 ng/ml; 2.5 h
Method: The ability of the Relaxin 2 fusion polypeptides to induce the expression of VEGF, a known downstream target of Relaxin 2 (Xiao et al., 2013), was assayed. The expression of VEGF RNA in THP-1 cells (Catalogue number TIB-202, ATCC) was analyzed by quantitative real-time PCR. A total of […] was seeded in a 24-well flat bottom plate (Catalogue number 353226, Corning) in 400 μl test media (RPMI-1640 without phenol red, 0.5% FBS, 1% Pen/Strep and 0.05 mM of 2-mercaptoethanol). After 24 h incubation at 37° C., 5% CO2, human relaxin-2 (Catalogue number 3956-RN, R&D Systems) or Fc-hRelaxin-2 fusion polypeptides, were added to the cells in the plate for 2.5 h at 37° C. RNA isolation and purification from THP-1 cells was performed using Qiagen's QiaShredder (Catalogue number 79656, Qiagen) and RNA Plus Mini Kit (Catalogue number 74134, Qiagen), following the manufacturer's protocol. The mRNA concentrations were measured by NanoDrop (Thermofisher) and samples were normalized to the same starting concentration (range between RT-PCR set up; 50-20 ng/μl). […] The relative fold change in VEGF mRNA level was calculated by the comparative Ct method using GAPDH expression for normalization. Results were calculated as fold changes over no treatment control. […] Data was analyzed by paired two tailed t-test utilizing Prism GraphPad, V6.

[3] = system: isoproterenol-induced cardiac hypertrophy; test: Isoproterenol-induced cardiac hypertrophy and fibrosis in mice (Example 8); type: in vivo, C57BL/6J male mice; details: given concomitantly with isoproterenol 15 mg/kg/day, 2 weeks
Method: A total of 6 study groups with n=8 mice (C57BL/6J male mice) per group were performed. The groups were: vehicle, Fc_hRLX2_15-15AA, isoproterenol, isoproterenol+enalapril, isoproterenol+recombinant human relaxin 2, and isoproterenol+Fc_hRLX2_15-15AA. Drugs and vehicle were delivered by Alzet minipumps (model 1002; rate: 0.25 μl/hr (±0.05), 6 μl one day @37° C.) or subcutaneous injection for Fc_hRLX2_15-15AA.
Isoproterenol was made as follows: A 500 mM solution (123.9 mg/ml) freshly in 0.0002% Na-Asc saline, […] filtered). The final [Iso] concentration in minipump: 15 mg/kg/day=15 mg/247.72/6 μl/1000 g=10.1 mM per gram of body weight (BVV). Vehicle was 0.0002% Na-ascorbate, Sigma catalog #A7631.
Enalapril was made as follows: Enalapril is used as maleate salt, MW of 492.52, Sigma catalog #E6888. A 200 mM stock solution (98.5 mg/ml) freshly in methanol, […] filtered. The final concentration in minipump: 2.5 mg/kg/day=2.5 mg/492.52/6 μl/1000 g=0.846 mM per gram of body weight (BVV), i.e., one minipump for 30 gram of mouse will need 19.0 μl of 200 mM Ena (150 μl×0.846/200 mM×30 g BW).
Isoproterenol+Enalapril: Isoproterenol and enalapril made as described above were included in the pump.
At the end of the study, body weight, heart weight, lung weight, and tibia length were measured. Additionally, histology and collagen assays were performed using the heart samples.
Fibrosis was measured based on the detection of hydroxyproline (Total collagen assay, QuickZyme Biosciences). Histology (H & E and Masson Trichrome) was also carried out on formalin treated heart tissue following 2 weeks of treatments.

[4] = Mouse PK profile, FcRn transgenic mouse, Fc capture and Relaxin detection ELISA (Example 6); type: in vivo; details: IV or SC, 6 mg/kg

Molecule | isoproterenol-induced increase in cardiac hypertrophy (HW/TL) [3] | isoproterenol-induced increase in fibrosis (collagen content) [3] | half-life offered by the YTE mutations [4] | also measured
serelaxin |  |  |  | proportion of patients with significant blood pressure drop (>40 mm Hg) [1]: approximately one third; markers of cardiac, renal and hepatic damage and congestion ([1]; patients): improved
rhRLX2: Recombinant human Relaxin-2, R&D Systems (catalogue 6586-RN-025; 3956-RN in VEGF assay), positive control; mature A/B chain array (chain 1 QLYSALANKCCHVGCTKRSLARFC; chain 2 DSWMEEVIKLCGRELVRAQIAICGMSTWS) | significantly attenuated | significantly attenuated |  | VEGF transcripts in THP-1 cells vs no treatment control [2]: significantly increased
CCOC(=O)[C@H](CCc1ccccc1)N[C@@H](C)C(=O)N1CCC[C@H]1C(=O)O [enalapril] | significantly attenuated | significantly attenuated |  | 
B1 |  |  | extended half-life | 
B2 |  |  | extended half-life | 
B3 |  |  | extended half-life | 
